Measurements: patent US20080248568A1, “Directed Neural Differentiation” (The University Court of the University of Edinburgh, priority 2005, published 2008)

Experiments:
NotchIC cells = assay: Monolayer differentiation of NotchIC ES cells, sox1-GFP by FACS; assay type: cell-based, mouse; settings: 4 μM inhibitor, sox1-GFP positive cells by FACS
Text: Intact cultures were stained for Oct4 on day 5 to visualise undifferentiated ES cells.
(§1) This is as described in detail in Ying et al., 2003b. Briefly, ES cells were washed to remove all traces of serum and then plated on gelatin-coated tissue culture plastic at a density of 1>10^4 cells/cm^2 in N2B27 serum-free medium. N2B27 consists of a 1:1 ratio of DM/F12 and Neurobasal media supplemental with 0.5% N2 (made in house as described in (Ying et al., 2003b)), 0.5% B27 (Gibco) and 2-mercaptoethanol. Media was changed every second day.
(§2) In some experiments, the culture medium was supplemented with 100 units/ml LIF and with 10% FCS. The MAPK inhibitor PD184352 (gift of P. Cohen, Univ Dundee) was used at a concentration of 4 μM. The gamma secretase inhibitor (Calbiochem cat. 565771) was used at a concentration of 4 μM.

ES cells = assay: Toxic effects of inhibitors in ES cell monolayer differentiation cultures; assay type: cell-based, mouse; settings: 4 μM
Text: as §1, §2

Compound | induction of sox1 in NotchIC cells (NotchIC cells) | toxic effects over the time course of the experiments (ES cells)
O=C(NOCC1CC1)c1ccc(F)c(F)c1Nc1ccc(I)cc1Cl [PD184352] | able to block induction of sox1 | Neither of these inhibitors had any obvious toxic effects
Cc1c[nH]c(/C=C2\C(=O)Nc3ccccc32)c1CCC(=O)O [SU5402] | able to block induction of sox1 | 
